In ChEMBL document CHEMBL1201862, “PubChem BioAssay data set” (2004):
The source made the active and inactive calls.

Experiments:
Leucine aminopeptidase = biological target: T1, Leucine aminopeptidase (Plasmodium falciparum 3D7, UniProt Q8IL11); assay: P. falciparum M17LAP inhibitors, primary screen, biochemical, fluorogenic H-Leu-NHMec substrate, 1536-well (AID 1619); assay type: functional
T1 sequence (Q8IL11 whole entry): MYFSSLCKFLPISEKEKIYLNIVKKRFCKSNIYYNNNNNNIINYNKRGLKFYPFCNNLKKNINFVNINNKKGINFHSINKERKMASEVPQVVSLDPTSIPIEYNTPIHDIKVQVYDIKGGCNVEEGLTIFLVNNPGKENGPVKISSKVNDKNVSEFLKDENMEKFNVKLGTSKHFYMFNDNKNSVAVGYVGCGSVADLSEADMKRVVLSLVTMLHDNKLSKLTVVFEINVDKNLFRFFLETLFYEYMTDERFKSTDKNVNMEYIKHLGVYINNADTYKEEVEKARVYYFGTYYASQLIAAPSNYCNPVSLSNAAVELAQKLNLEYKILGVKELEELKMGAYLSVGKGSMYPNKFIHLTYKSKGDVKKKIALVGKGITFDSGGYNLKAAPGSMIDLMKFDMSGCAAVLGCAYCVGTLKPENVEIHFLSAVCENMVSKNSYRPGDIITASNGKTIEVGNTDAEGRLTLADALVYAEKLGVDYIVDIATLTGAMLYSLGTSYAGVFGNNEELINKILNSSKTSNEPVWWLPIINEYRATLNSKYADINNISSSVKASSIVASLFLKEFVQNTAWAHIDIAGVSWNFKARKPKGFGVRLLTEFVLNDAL

[1] = biological target: T2, Zinc finger protein mex-5 (Caenorhabditis elegans, UniProt Q9XUB2); assay: potency of MEX-5 RNA-binding blockers – biochemical, C. elegans, fluorescence polarization, dose response (AID 1960)
T2 sequence (Q9XUB2 whole entry): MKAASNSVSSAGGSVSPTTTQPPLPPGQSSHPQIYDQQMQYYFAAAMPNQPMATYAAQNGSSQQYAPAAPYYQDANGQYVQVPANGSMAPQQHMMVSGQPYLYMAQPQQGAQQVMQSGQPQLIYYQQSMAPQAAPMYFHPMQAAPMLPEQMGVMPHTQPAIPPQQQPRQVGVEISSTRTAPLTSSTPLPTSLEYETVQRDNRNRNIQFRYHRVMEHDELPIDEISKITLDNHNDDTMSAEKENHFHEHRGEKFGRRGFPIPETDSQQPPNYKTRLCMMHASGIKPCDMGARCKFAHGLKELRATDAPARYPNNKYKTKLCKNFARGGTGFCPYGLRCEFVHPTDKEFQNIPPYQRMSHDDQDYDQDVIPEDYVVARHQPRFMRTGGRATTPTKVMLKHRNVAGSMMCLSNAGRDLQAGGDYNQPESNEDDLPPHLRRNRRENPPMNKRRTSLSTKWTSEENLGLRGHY

Cytochrome P450 2C19 = Cytochrome P450 2C19 (Homo sapiens, UniProt P33261); assay: Cytochrome panel assay with activity outcomes. Panel member name: p450-cyp2c19 Compounds with AC50 equal or less than 10 uM are considered active; assay type: functional; settings: read-out: AC50
Cytochrome P450 1A2 = biological target: T3, Cytochrome P450 1A2 (Homo sapiens, UniProt P05177);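 also: PubChem cytochrome P450 panel assay, CYP1A2 panel member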
T3 sequence (P05177 whole entry): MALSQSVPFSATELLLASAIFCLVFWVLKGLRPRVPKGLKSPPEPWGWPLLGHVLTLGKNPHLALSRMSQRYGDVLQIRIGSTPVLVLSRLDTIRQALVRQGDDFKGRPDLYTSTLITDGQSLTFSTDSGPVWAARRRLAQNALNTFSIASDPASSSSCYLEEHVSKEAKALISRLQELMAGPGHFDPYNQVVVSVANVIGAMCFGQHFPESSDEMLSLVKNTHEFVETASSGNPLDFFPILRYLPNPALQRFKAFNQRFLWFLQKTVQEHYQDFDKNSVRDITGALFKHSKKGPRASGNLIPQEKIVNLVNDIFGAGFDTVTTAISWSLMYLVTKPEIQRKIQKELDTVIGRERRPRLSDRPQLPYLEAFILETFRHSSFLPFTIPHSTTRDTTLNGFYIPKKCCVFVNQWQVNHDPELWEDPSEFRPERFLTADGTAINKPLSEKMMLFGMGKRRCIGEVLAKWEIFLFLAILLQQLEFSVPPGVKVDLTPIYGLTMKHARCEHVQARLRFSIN

[2] = biological target: T4, RNA-binding protein pos-1 (Caenorhabditis elegans, UniProt G5EF15); assay: disruptors of C. elegans POS-1 RNA interaction – biochemical, fluorescence polarization, dose response (AID 1964);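 also: purified POS-1 fused to maltose binding protein made in E. coli; potency of compounds blocking POS-1 binding to fluorescent RNA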
T4 sequence (G5EF15 whole entry): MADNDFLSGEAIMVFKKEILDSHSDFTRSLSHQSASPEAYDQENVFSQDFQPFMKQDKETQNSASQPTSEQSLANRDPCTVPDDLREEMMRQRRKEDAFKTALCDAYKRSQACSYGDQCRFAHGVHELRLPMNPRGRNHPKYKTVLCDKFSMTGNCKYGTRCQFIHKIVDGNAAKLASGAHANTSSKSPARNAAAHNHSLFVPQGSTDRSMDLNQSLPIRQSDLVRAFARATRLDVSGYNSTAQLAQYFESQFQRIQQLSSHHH

H4 = assay: Luminescence Cell-Based Dose Response HTS to Identify Activators of 5'UTR Stem-Loop Driven Prion Protein mRNA Translation in H4 Neuroglioblastoma Cells. [Related pubchem assays: 1829 (Project Summary), 1814 (Primary HTS)]; assay type: functional; settings: Homo sapiens
[3] = Luminescence Cell-Based Dose Response HTS to Identify Activators of Luciferase Translation or Activity in H4 […] Cells. [Related pubchem assays: 1829 (Project Summary), 1814 (Primary HTS)]; assay type: functional
[4] = Luminescence Cell-Based Dose Confirmation HTS to Identify Activators of 5'UTR Stem-Loop Driven Alpha-Synuclein mRNA Translation in H4 Neuroglioblastoma Cells. [Related pubchem assays: 1829 (Project Summary), 1814 (Primary HTS)]; assay type: functional
[5] = Luminescence Cell-Based Dose Confirmation HTS to Identify Inhibitors of Platelet Dense Granule Release. [Related pubchem assays: 1663 (Primary HTS), 1678 (Summary of Project)]; assay type: functional
[6] = biological target: Luciferin 4-monooxygenase (Photinus pyralis, UniProt P08659); assay: inhibition of purified Photinus pyralis luciferase – biochemical, luminescence, dose response (AID 1891)
[7] = biological target: T5, Replicative DNA helicase DnaB (Mycobacterium tuberculosis, UniProt P9WMR3); assay: DnaB intein splicing inhibitors, dose response, biochemical, cell-free fluorescence (AID 449749); assay type: functional
T5 sequence (P9WMR3 whole entry): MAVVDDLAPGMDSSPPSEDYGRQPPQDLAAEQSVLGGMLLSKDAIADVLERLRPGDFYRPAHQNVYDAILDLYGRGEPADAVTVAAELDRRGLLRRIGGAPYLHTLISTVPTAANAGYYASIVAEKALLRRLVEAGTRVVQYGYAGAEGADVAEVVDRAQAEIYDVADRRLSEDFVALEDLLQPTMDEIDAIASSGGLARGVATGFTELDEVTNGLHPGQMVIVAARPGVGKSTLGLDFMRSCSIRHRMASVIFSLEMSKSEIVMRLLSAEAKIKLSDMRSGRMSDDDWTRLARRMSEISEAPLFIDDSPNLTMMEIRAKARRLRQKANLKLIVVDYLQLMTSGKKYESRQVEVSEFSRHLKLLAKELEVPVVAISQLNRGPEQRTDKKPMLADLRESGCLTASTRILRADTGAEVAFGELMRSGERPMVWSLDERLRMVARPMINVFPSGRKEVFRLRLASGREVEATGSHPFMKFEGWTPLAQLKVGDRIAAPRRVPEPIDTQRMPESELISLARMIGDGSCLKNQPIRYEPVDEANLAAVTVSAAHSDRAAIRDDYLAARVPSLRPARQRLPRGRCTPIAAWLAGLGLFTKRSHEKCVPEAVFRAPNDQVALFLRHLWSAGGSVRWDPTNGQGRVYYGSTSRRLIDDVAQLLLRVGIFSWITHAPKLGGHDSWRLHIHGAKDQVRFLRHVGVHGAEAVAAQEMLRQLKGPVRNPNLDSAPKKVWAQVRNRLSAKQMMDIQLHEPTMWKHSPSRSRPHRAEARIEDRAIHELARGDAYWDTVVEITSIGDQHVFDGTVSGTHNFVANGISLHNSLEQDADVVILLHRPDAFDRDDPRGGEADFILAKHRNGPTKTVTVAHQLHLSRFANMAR

Protein RecA = biological target: T6, Protein RecA (Mycobacterium tuberculosis, UniProt P9WHJ3); assay: Fluorescence Cell-Free Homogeneous Dose Retest to Identify Inhibitors of RecA-Intein Splicing Activity. [Related pubchem assays (depositor defined):AID2097, AID2223, AID489010, AID492950]; assay type: functional
T6 sequence (P9WHJ3 whole entry): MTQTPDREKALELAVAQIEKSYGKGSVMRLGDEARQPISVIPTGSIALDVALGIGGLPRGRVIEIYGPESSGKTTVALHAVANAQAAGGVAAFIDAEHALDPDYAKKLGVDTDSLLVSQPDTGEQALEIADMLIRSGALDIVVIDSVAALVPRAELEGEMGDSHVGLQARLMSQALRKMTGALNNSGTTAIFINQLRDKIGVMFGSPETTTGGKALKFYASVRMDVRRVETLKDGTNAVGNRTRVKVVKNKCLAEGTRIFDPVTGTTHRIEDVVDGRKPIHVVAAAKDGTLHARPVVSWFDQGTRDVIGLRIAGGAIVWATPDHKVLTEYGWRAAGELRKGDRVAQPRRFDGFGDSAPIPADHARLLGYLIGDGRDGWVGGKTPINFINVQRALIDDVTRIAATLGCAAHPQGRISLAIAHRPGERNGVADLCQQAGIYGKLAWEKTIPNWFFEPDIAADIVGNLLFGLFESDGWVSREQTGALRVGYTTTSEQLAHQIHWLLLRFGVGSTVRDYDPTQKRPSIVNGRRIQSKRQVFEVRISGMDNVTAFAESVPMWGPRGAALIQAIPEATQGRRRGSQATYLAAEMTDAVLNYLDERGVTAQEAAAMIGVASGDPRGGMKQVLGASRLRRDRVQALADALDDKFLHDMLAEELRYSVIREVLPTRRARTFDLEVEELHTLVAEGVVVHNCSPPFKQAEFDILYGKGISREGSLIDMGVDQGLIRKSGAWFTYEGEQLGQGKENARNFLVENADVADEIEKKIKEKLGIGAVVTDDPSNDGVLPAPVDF

Luciferin 4-monooxygenase, sequence (P08659 whole entry): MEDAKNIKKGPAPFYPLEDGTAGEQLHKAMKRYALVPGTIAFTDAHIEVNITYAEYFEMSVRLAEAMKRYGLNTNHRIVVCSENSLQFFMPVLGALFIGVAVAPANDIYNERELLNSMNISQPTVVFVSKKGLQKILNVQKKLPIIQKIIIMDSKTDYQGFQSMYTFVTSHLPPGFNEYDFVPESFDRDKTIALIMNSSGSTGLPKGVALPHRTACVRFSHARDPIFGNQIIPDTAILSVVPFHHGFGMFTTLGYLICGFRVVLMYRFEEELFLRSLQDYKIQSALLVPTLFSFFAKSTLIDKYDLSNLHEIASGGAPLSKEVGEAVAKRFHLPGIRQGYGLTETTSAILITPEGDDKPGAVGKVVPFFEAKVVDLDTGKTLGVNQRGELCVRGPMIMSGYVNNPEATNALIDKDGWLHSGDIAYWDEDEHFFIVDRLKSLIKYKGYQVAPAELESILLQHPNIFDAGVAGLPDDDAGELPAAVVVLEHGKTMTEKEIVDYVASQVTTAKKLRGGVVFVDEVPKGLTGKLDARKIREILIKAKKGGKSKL
Cytochrome P450 2C19, sequence (P33261 whole entry): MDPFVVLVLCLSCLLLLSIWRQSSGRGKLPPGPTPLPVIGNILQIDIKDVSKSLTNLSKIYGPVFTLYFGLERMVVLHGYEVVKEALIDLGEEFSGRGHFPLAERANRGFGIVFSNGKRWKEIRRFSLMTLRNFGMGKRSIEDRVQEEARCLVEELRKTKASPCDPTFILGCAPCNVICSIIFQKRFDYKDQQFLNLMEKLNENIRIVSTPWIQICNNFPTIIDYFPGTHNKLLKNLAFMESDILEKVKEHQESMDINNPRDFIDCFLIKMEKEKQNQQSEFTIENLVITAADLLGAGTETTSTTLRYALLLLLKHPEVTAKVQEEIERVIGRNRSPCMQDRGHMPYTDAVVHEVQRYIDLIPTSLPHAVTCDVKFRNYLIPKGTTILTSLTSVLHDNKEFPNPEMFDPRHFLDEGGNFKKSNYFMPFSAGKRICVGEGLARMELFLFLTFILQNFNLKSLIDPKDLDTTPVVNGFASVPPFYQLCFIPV

Row | Compound | IC50 (Leucine aminopeptidase) | EC50 (H4) | EC50 [3] | EC50 [4] | further results
1 | COc1ccc2cc(/C=C3\SC(=S)NC3=O)c(N3CCOCC3)nc2c1 | 1.76 µM (active) | – | – | – | –
2 | CC(/C=C1\N=C(SCc2ccccc2Cl)SC1=O)=C\c1ccccc1 | – | – | – | – | EC50 [1]: > 300 µM (not active); AC50 (Cytochrome P450 2C19): 7.08 µM (inconclusive); AC50 (Cytochrome P450 1A2): 4.47 µM (inconclusive); EC50 [2]: > 300 µM (not active)
3 | O=C(O)CCc1nnc(SCC(=O)Nc2ccc(Cl)c(C(F)(F)F)c2)nc1O | 2.82 µM (active) | – | – | – | –
4 | Cc1ccc(-c2nc(N3CCOCC3)s[n+]2-c2ccccc2)cc1.[O-][Cl+3]([O-])([O-])[O-] | – | 31.5 µM (active) | 7.52 µM (active) | 7.82 µM (active) | –
5 | COc1ccc2[nH]cc(C(=O)CN3CCC(C)CC3)c2c1 | – | 14.4 µM (active) | 17.6 µM (active) | 5.71 µM (active) | –
6 | CSc1nnc(N2C(=O)C(O)=C(C(=O)c3ccco3)C2c2cccc(Cl)c2)s1 (stereo unspecified) | – | – | – | – | EC50 [5]: > 112 µM (not active); EC50 [1]: 14.3 µM (active); EC50 [6]: > 112 µM (not active); EC50 [2]: 31.3 µM (active)
7 | CN(C(=O)c1ccc(OC2CCN(CCc3ccccc3)CC2)cc1)C1CCCCC1 | – | > 120 µM (not active) | 18.5 µM (active) | 13.3 µM (active) | –
8 | Cc1ccc2nc(NC(=O)COC(=O)c3ccncc3)sc2c1 | – | 11.4 µM (active) | > 120 µM (not active) | > 120 µM (not active) | –
9 | C/N=C(\c1ccc(C)cc1)n1c(=S)nc(-c2ccc(C)cc2)n(C)c1=S | – | 21.3 µM (active) | 15.4 µM (active) | > 120 µM (not active) | –
10 | O=C(Nc1c(C(=O)Nc2ccc3c(c2)OCCO3)cnn1-c1ccccc1Cl)c1ccco1 | – | > 120 µM (not active) | 20.5 µM (active) | 20 µM (active) | –
11 | Cn1c(CCNC(=O)c2cccs2)nnc1SCC(=O)Nc1nc(-c2ccccc2)cs1 | – | 27.3 µM (active) | 24.5 µM (active) | > 120 µM (not active) | –
12 | COC(=O)c1c(NC(=O)/C=C/C(=O)O)sc(C)c1-c1ccc(C)c(C)c1 | 35.6 µM (active) | – | – | – | AC50 [7]: 15.1 µM (active); EC50 (Protein RecA): 5.69 µM (active)
13 | N#Cc1c(/N=C/C2C(=O)NC(=S)NC2=O)sc2c1CCCC2 | 110 µM (active) | – | – | – | –
14 | O=C(Nc1ccccc1)NC(Cc1ccc(O)cc1)C(=O)O (stereo unspecified) | 34.7 µM (active) | – | – | – | –
